Earlier results on one compound are cited in patent US6770263B1, “Compositions and methods for the treatment of aches and pains” (NatureWell, Incorporated, priority 2001, dated 2004).

The conditions of the data set: following the administration of 500 mg aspirin.

On to `CC(=O)Oc1ccccc1C(=O)O` [aspirin, acetylsalicylic acid], for which the plasma level was 130 µM.
